Source: article PMC9571594, “Development of Semisynthetic Apoptosis-Inducing Agents Based on Natural Phenolic Acids Scaffold: Design, Synthesis and In-Vitro Biological Evaluation” (Molecules, 2022)
Where “and” joins values, the source holds several entries; their conditions need not be identical. Identical values can stand only once. Like-named read-outs stand apart in the source and are kept apart here.

Experiments:
Format in all cases: cell-based
Caco-2 cancer cell line = assay: MTT cell viability assay, Caco-2; conditions: 48 h; for IC50: MTT, average of triplicates, semi-synthesized compounds (Table 3), read-out: IC50 (μM) on Caco-2 cancer cell line
Description: MCF-7 cells (Human breast adenocarcinoma), HepG2 (human hepatocellular carcinoma), A549 (human lung adenocarcinoma), Caco-2 (colon carcinoma), PANC-1 (human pancreatic cancer), and Vero cells (derived from normal kidney cells) were supplied by (Holding Company for Biological Products and Vaccines VACSERA; Giza, Egypt). The cells were cultured in PRMI 1640 medium (Lonza, Switzerland) supplemented with 10% fetal bovine serum (Gibco), 1% penicillin and 1% streptomycin (Sigma Aldrich, Saint Louis, MO, USA) at 37 °C under an atmosphere of 5% CO2 and 95% air.
The effect of parent compounds and their derivatives were assessed by (3-(4,5-dimethylthiazol-2-yl)-2,5diphenyl-tetrazolium bromide) MTT assay. […] After a merged sheet of cells developed, the growth media was decanted from the 96-well microtiter and refilled with different concentrations of compounds (µg/mL), and the plate was incubated at 37 °C for 48 h to minimize exposure to the dissolving agent (Supporting Information).
MTT solution (BIO BASIC CANADA INC) was prepared [5 mg/mL in phosphate buffered saline (PBS)], added to each well and incubated for 4 h, then after removing the media, 200 μL of DMSO was added to each well to solubilize the formazan crystals and the optical density of the formazan product was measured at 560 nm using microplate reader (mindray, MR-96A). The results were calculated as the mean of the three independent experiments. […]
Determination of sample cytotoxicity on cells (MTT protocol) […]
well) and incubated at 37°C for 24 hours to develop a complete monolayer sheet.
2- Growth medium was decanted from 96 well micro titer plates after confluent sheet of cells were formed, cell monolayer was washed twice with wash media.
3- two-fold dilutions of tested sample was made in RPMI medium with 2% serum […]
4- 0.1 ml of each dilution was tested in different wells leaving 3 wells as control, receiving only maintenance medium.
5- Plate was incubated at 37°C and examined. Cells were checked for any physical signs of toxicity, e.g. partial or complete loss of the monolayer, rounding, shrinkage, […]
6- MTT solution was prepared (5mg/ml in PBS) (BIO BASIC CANADA INC).
8- 20ul MTT solution were added to each well. Place on a shaking table, 150rpm for 5 minutes, to thoroughly mix the MTT into the media.
10) Dump off the media. (dry plate on paper towels to remove residue if necessary. […] 9 ش - ايلعلا هبضهلا - مطقملا / ىسيئرلا لمعملا […]

Caco-2 cells [1] = assay: Annexin V-FITC/PI apoptosis assay by flow cytometry; parameters: key: % of cells; conditions: annexin-V FITC/PI staining, 24h
Description: (§1) In order to determine the percentage of viable, apoptotic and necrotic cells after treatment with our compounds, double-staining with fluorescein isothiocyanate (FITC) and PI was performed. Annexin V-FITC Apoptosis Detection Kit (BioVision, CA, USA) was used. Briefly, cultured Caco-2 were treated with the tested compounds or DMSO for 24h. Cells were then collected by centrifugation at 2000 rpm for 5 min, and the pellet was washed with PBS then centrifuged again at 2000 rpm for 5 min then resuspended in 500μL of the kit’s binding buffer before adding the Annexin V-FITC and PI. The cells were then incubated at room temperature in the dark for 5 min. Annexin V-FITC binding was measured using FACS Calibur flow cytometer (BD biosciences, USA) (Ex = 488 nm, Em = 533 nm, FL1 filter for annexin and FL2 filter for PI).

Caco-2 cells [2] = assay: Cell-cycle analysis by flow cytometry; conditions: for %G0–G1 / %G2/M / %S / %Pre-G1: Caco-2 cells; for %G0–G1 / %G2/M / %S: cell-cycle distribution after treatment; for %Pre-G1: Pre-G1 = apoptotic population
Description: The potential candidates with anti-tumor effect on the Caco-2 cell line along with a high SI were chosen for cell-cycle analysis. The cell-cycle distribution and cell death were analyzed using Annexin V-FITC/PI staining and flow cytometry (Table 4, Figure 4).
as §1, with “Annexin V-FITC binding was measured using FACS Calibur flow cytometer (BD biosciences, USA) (Ex = 488 nm, Em = 533 nm, FL1 filter for annexin and FL2 filter for PI).” left out
Assay : Cell Cycle Analysis
Kit used : ab139418_Propidium Iodide Flow Cytometry Kit/BD
Assay samples :Cell culture
(§2) Cpd. No. Cpd. No. Cpd. No. Cpd. No.

MMP-2 = assay: RT-qPCR gene expression of MMP-2; conditions: for MMP2 Fold Change: Caco2, relative to cont.Caco2 = 1
Description: (§3) The treated cells were harvested and the total RNA was extracted using RNeasy Mini Kit (Qiagen) according to the manufacturer’s instruction. The primers of the required genes (Table 6) were used for SYBR Green qRT-PCR using a one-step RT-PCR kit with SYBR Green (Bio-Rad). qRT-PCR was performed on Rotor Gene Q (Qiagen). […] Rotor-Gene 6000 Series Software was used for data analysis. and their HGNC ID was added (Table 6)
(§4) Researcher : Dr/Noura email: mob.
(§5) Reader : Rotorgene RT- PCR system
(§6) Kit used : Qiagen RNA extraction/BioRad syber green PCR MMX
(§7) Assay samples :Cell culture Lysate
as §2

MMP-9 = assay: RT-qPCR gene expression of MMP-9; conditions: for MMP9 Fold Change: Caco2, relative to cont.Caco2 = 1
Description: as §3, §4, §5, §6, §7, §2

Molecule: O=C(/C=C/c1ccc(O)c(O)c1)N1CCN(c2ccccc2)CC1 [Compound 3, (E)-3-(3,4-Dihydroxyphenyl)-1-(4-phenylpiperazin-1-yl)prop-2-en-1-one]
- IC50 (Caco-2 cancer cell line; Homo sapiens, Caco-2): 80 µM

Molecule: O=C(/C=C/c1ccc(O)c(O)c1)Nc1ccc(O)cc1 [Compound 4, (E)-3-(3,4-Dihydroxyphenyl)-N-(4-hydroxyphenyl)acrylamide]
- IC50 (Caco-2 cancer cell line; Homo sapiens, Caco-2): 70 µM

Molecule: Cc1ccc(NC(=O)/C=C/c2ccc(O)c(O)c2)cc1 [Compound 5, (E)-3-(3,4-Dihydroxyphenyl)-N-(p-tolyl)acrylamide]
- IC50 (Caco-2 cancer cell line; Homo sapiens, Caco-2): 60 µM
- Apoptosis Total (Caco-2 cells [1]): 7.56
- Early Apoptosis (Caco-2 cells [1]): 2.59
- Late Apoptosis (Caco-2 cells [1]): 3.93
- Necrosis (Caco-2 cells [1]): 1.04
- %G0–G1 (Caco-2 cells [2]): 41.52 ± 2.61%
- %G2/M (Caco-2 cells [2]): 26.86 ± 2.75%
- %S (Caco-2 cells [2]): 31.62 ± 1.79%
- %G0–G1 (Caco-2 cells [2]; listed as CA3): 41.52%
- %G2/M (Caco-2 cells [2]; listed as CA3): 26.86%
- %S (Caco-2 cells [2]; listed as CA3): 31.62%
- %Pre-G1 (Caco-2 cells [2]): 7.56 ± 0.39%
- %Pre-G1 (Caco-2 cells [2]; listed as CA3): 7.56%

Molecule: O=C(/C=C/c1ccc(O)c(O)c1)NC1CCCCC1 [Compound 6, (E)-N-Cyclohexyl-3-(3,4-dihydroxyphenyl)acrylamide]
- IC50 (Caco-2 cancer cell line; Homo sapiens, Caco-2): 50 µM

Molecule: O=C(/C=C/c1ccc(O)c(O)c1)Nc1ccc(Br)cc1 [Compound 7, (E)-N-(4-Bromophenyl)-3-(3,4-dihydroxyphenyl)acrylamide]
- IC50 (Caco-2 cancer cell line; Homo sapiens, Caco-2): 20 µM
- Apoptosis Total (Caco-2 cells [1]): 18.26
- Early Apoptosis (Caco-2 cells [1]): 4.75
- Necrosis (Caco-2 cells [1]): 2.14
- MMP2 Fold Change (MMP-2): 0.16±0.004 Fold Change
- expression of MMP2 (in words) (MMP-2; Figures 8 and 9): greatest inhibition
- MMP9 Fold Change (MMP-9): 0.29±0.006 Fold Change
- expression of MMP9 (in words) (MMP-9; Figures 8 and 9): greatest inhibition
- %G0–G1 (Caco-2 cells [2]): 28.68 ± 1.64%
- %G2/M (Caco-2 cells [2]): 44.91 ± 3.42%
- %S (Caco-2 cells [2]): 26.41 ± 2.15%
- %G0–G1 (Caco-2 cells [2]; listed as CA6): 28.68%
- %G2/M (Caco-2 cells [2]; listed as CA6): 44.91%
- %S (Caco-2 cells [2]; listed as CA6): 26.41%
- %Pre-G1 (Caco-2 cells [2]): 18.26% and 18.26 ± 1.42%

Molecule: COc1ccc(NC(=O)/C=C/c2ccc(O)c(O)c2)cc1 [Compound 8, (E)-N-(4-Methoxyphenyl)-3-(3,4-dihydroxyphenyl)acrylamide]
- IC50 (Caco-2 cancer cell line; Homo sapiens, Caco-2): 80 µM

Molecule: O=C(/C=C/c1ccc(O)c(O)c1)NCc1ccccc1 [Compound 9, (E)-N-Benzyl-3-(3,4-dihydroxyphenyl)acrylamide]
- IC50 (Caco-2 cancer cell line; Homo sapiens, Caco-2): 30 µM
- Apoptosis Total (Caco-2 cells [1]): 9.62
- Early Apoptosis (Caco-2 cells [1]): 3.72
- Late Apoptosis (Caco-2 cells [1]): 4.54
- Necrosis (Caco-2 cells [1]): 1.36
- %G0–G1 (Caco-2 cells [2]): 38.51 ± 1.95%
- %G2/M (Caco-2 cells [2]): 30.05 ± 2.59%
- %S (Caco-2 cells [2]): 31.44 ± 2.87%
- %G0–G1 (Caco-2 cells [2]; listed as CA9): 38.51%
- %G2/M (Caco-2 cells [2]; listed as CA9): 30.05%
- %S (Caco-2 cells [2]; listed as CA9): 31.44%
- %Pre-G1 (Caco-2 cells [2]): 9.62 ± 0.37%
- %Pre-G1 (Caco-2 cells [2]; listed as CA9): 9.62%

Molecule: O=C(/C=C/c1ccc(O)c(O)c1)Nc1ccc(Cl)cc1 [Compound 10, (E)-N-(4-Chlorophenyl)-3-(3,4-dihydroxyphenyl)acrylamide]
- IC50 (Caco-2 cancer cell line; Homo sapiens, Caco-2): 9 µM
- Apoptosis Total (Caco-2 cells [1]): 23.42
- Early Apoptosis (Caco-2 cells [1]): 7.59
- Necrosis (Caco-2 cells [1]): 3.14
- %G0–G1 (Caco-2 cells [2]): 29.75 ± 1.73%
- %G2/M (Caco-2 cells [2]): 41.98 ± 2.18%
- %S (Caco-2 cells [2]): 28.27 ± 1.99%
- %G0–G1 (Caco-2 cells [2]; listed as CA11): 29.75%
- %G2/M (Caco-2 cells [2]; listed as CA11): 41.98%
- %S (Caco-2 cells [2]; listed as CA11): 28.27%
- %Pre-G1 (Caco-2 cells [2]): 23.42% and 23.42 ± 2.12%

Molecule: COc1ccc(/C=C/C(=O)N2CCN(c3ccccc3)CC2)cc1O [Compound 12, (E)-3-(3-Hydroxy-4-methoxyphenyl)-1-(4-phenylpiperazin-1-yl)prop-2-en-1-one]
- IC50 (Caco-2 cancer cell line; Homo sapiens, Caco-2): 40 µM

Molecule: COc1ccc(NC(=O)/C=C/c2ccc(OC)c(O)c2)cc1 [Compound 13, (E)-3-(3-Hydroxy-4-methoxyphenyl)-N-(4-methoxyphenyl)acrylamide]
- IC50 (Caco-2 cancer cell line; Homo sapiens, Caco-2): 80 µM

Molecule: COc1ccc(NC(=O)/C=C/c2ccc(O)c(OC)c2)cc1 [Compound 16, (E)-3-(4-Hydroxy-3-methoxyphenyl)-N-(4-methoxyphenyl)acrylamide]
- IC50 (Caco-2 cancer cell line; Homo sapiens, Caco-2): 80 µM

Molecule: COc1ccc(/C=C/C(=O)Nc2ccccc2N)cc1O [Compound 20, (E)-N-(2-Aminophenyl)-3-(3-hydroxy-4-methoxyphenyl)acrylamide]
- Apoptosis Total (Caco-2 cells [1]): 8.62
- Early Apoptosis (Caco-2 cells [1]): 2.19
- Late Apoptosis (Caco-2 cells [1]): 5.19
- Necrosis (Caco-2 cells [1]): 1.24
- MMP2 Fold Change (MMP-2): 0.68±0.018 Fold Change
- MMP9 Fold Change (MMP-9): 0.45±0.009 Fold Change
- apoptotic population compared to the parent compound (Caco-2 cells [2]; Caco-2, in words, versus parent 1 or 2): non-significant decrease
- %G0–G1 (Caco-2 cells [2]): 39.12 ± 2.58%
- %G2/M (Caco-2 cells [2]): 26.84 ± 2.34%
- %S (Caco-2 cells [2]): 34.04 ± 2.69%
- %G0–G1 (Caco-2 cells [2]; listed as FA12): 39.12%
- %G2/M (Caco-2 cells [2]; listed as FA12): 26.84%
- %S (Caco-2 cells [2]; listed as FA12): 34.04%
- %Pre-G1 (Caco-2 cells [2]): 8.62 ± 0.69%
- %Pre-G1 (Caco-2 cells [2]; listed as FA12): 8.62%

Molecule: COc1cccc2c1C(=O)c1c(O)c3c(c(O)c1C2=O)C[C@@](O)(C(=O)CO)C[C@@H]3O[C@H]1C[C@H](N)[C@H](O)[C@H](C)O1 [Doxorubicin]
- IC50 (μM) ± SD Caco-2 (Caco-2 cancer cell line): 0.17 ± 1.1 µM

Molecule: (E)-3-(3-Hydroxy-4-methoxyphenyl)-N-(p-tolyl)acrylamide [Compound 14]
- IC50 (Caco-2 cancer cell line): 50 µM
- Apoptosis Total (Caco-2 cells [1]): 16.51
- Early Apoptosis (Caco-2 cells [1]): 3.99
- Necrosis (Caco-2 cells [1]): 2.26
- %Pre-G1 (Caco-2 cells [2]): 16.51% and 16.51 ± 0.63%
